# Like-named read-outs stand apart in the source and are kept apart here.
# Key:
# [1] = unbuffered
# [2] = 8 mg/mL; for Osmolality / [Furosemide] / pH: three months
# [3] = 25 mM Tris, nominal pH 7.0, 70° C.
# [4] = 25 mM Tris, nominal pH 7.4, 70° C.
# [5] = 25 mM Tris, nominal pH 8.0, 70° C.
# [6] = 50 mM Tris, nominal pH 7.0, 70° C.
# [7] = 50 mM Tris, nominal pH 7.4, 70° C.
# [8] = 50 mM Tris, nominal pH 8.0, 70° C.
# [9] = 100 mM Tris, nominal pH 7.0, 70° C.
# [10] = 100 mM Tris, nominal pH 7.4, 70° C.
# [11] = 100 mM Tris, nominal pH 8.0, 70° C.
# [12] = 25, 50, 100 mM Tris, pH 7.0, 7.4, 8.0, 70° C., 3 months
structure (smiles),measurement,setting,value
"NS(=O)(=O)c1cc(C(=O)O)c(NCc2ccco2)cc1Cl [Furosemide, 4-chloro-2-(furan-2-ylmethylamino)-5-sulfamoyl-benzoic acid]",solution pH over time,"[1]; 0.1 mg/mL and 8 mg/mL, adjusted to pH 8 to 9 with NaOH and HCl, monitored 72 hours",continually decrease
same,reproducibility of observed pH values,"[1]; 8 mg/mL, pH 8.5, same equivalents of furosemide, acid and base",varied widely
same,Osmolality,[2]; [3],308 mOsm/kg H2O
same,[Furosemide],[2]; [3],<0.002 mg/mL
same,pH,[2]; [3],4.44
same,Osmolality,[2]; [4],299 mOsm/kg H2O
same,[Furosemide],[2]; [4],<0.002 mg/mL
same,pH,[2]; [4],4.57
same,Osmolality,[2]; [5],297 mOsm/kg H2O
same,[Furosemide],[2]; [5],1.16 mg/mL
same,pH,[2]; [5],5.26
same,Osmolality,[2]; [6],305 mOsm/kg H2O
same,[Furosemide],[2]; [6],<0.002 mg/mL
same,pH,[2]; [6],4.50
same,Osmolality,[2]; [7],311 mOsm/kg H2O
same,[Furosemide],[2]; [7],<0.002 mg/mL
same,pH,[2]; [7],4.73
same,Osmolality,[2]; [8],311 mOsm/kg H2O
same,[Furosemide],[2]; [8],3.60 mg/mL
same,pH,[2]; [8],7.30
same,Osmolality,[2]; [9],306 mOsm/kg H2O
same,[Furosemide],[2]; [9],<0.002 mg/mL
same,pH,[2]; [9],4.54
same,Osmolality,[2]; [10],312 mOsm/kg H2O
same,[Furosemide],[2]; [10],0.58 mg/mL
same,pH,[2]; [10],5.68
same,Osmolality,[2]; [11],303 mOsm/kg H2O
same,[Furosemide],[2]; [11],3.67 mg/mL
same,pH,[2]; [11],7.56
same,change in furosemide concentration,[2]; [12],decreased significantly
same,change in osmolality,[2]; [12],slightly increased
same,change in pH,[2]; [12],decreased significantly
same,color of samples,[2]; [12],dark brown

# Source: US12370168B2 (scPharmaceuticals Inc., priority 2013, dated 2025)
